Data taken from PubChem BioAssay (NCI).
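In this assay, cells in 96-well plates receive the compound at five concentrations for 48 hours. Endpoints are linearly interpolated between the surrounding concentrations. TGI is the concentration that stops growth completely.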

Experiments:
Test in all cases: DTP human tumour cell line panel, 48 h
SR leukemia = test system: SR leukemia
HL-60(TB) leukemia = test system: HL-60(TB) leukemia
NCI-H522 lung = test system: NCI-H522 lung
KM12 colon = test system: KM12 colon
DLD-1 colon = test system: DLD-1 colon
SNB-78 CNS = test system: SNB-78 CNS
UO-31 renal = test system: UO-31 renal
M14 melanoma = test system: M14 melanoma
SW-620 colon = test system: SW-620 colon
OVCAR-4 ovarian = test system: OVCAR-4 ovarian
SK-OV-3 ovarian = test system: SK-OV-3 ovarian
LXFL 529 NSCLC = test system: LXFL 529 NSCLC
IGROV1 ovarian = test system: IGROV1 ovarian
HCC-2998 colon = test system: HCC-2998 colon
CAKI-1 renal = test system: CAKI-1 renal
UACC-257 melanoma = test system: UACC-257 melanoma
K-562 leukemia = test system: K-562 leukemia
M19-MEL melanoma = test system: M19-MEL melanoma
HOP-62 NSCLC = test system: HOP-62 NSCLC
COLO 205 colon = test system: COLO 205 colon
DMS 273 small cell lung = test system: DMS 273 small cell lung
HCT-15 colon = test system: HCT-15 colon
HOP-92 NSCLC = test system: HOP-92 NSCLC
DMS 114 small cell lung = test system: DMS 114 small cell lung
LOX IMVI melanoma = test system: LOX IMVI melanoma
SN12C renal = test system: SN12C renal
786-0 renal = test system: 786-0 renal
SF-295 CNS = test system: SF-295 CNS
OVCAR-5 ovarian = test system: OVCAR-5 ovarian
KM20L2 colon = test system: KM20L2 colon
UACC-62 melanoma = test system: UACC-62 melanoma
SK-MEL-5 melanoma = test system: SK-MEL-5 melanoma
MALME-3M melanoma = test system: MALME-3M melanoma
SK-MEL-28 melanoma = test system: SK-MEL-28 melanoma
NCI-H226 lung = test system: NCI-H226 lung
TK-10 renal = test system: TK-10 renal
A549 NSCLC = test system: A549 NSCLC
SNB-19 CNS = test system: SNB-19 CNS
MOLT-4 leukemia = test system: MOLT-4 leukemia
HCT-116 colon = test system: HCT-116 colon
RPMI-8226 leukemia = test system: RPMI-8226 leukemia
OVCAR-3 ovarian = test system: OVCAR-3 ovarian
ACHN renal = test system: ACHN renal
HT29 colon = test system: HT29 colon
SNB-75 CNS = test system: SNB-75 CNS
A498 renal = test system: A498 renal
CCRF-CEM leukemia = test system: CCRF-CEM leukemia
OVCAR-8 ovarian = test system: OVCAR-8 ovarian
U251 CNS = test system: U251 CNS
SK-MEL-2 melanoma = test system: SK-MEL-2 melanoma
XF 498 CNS = test system: XF 498 CNS
EKVX NSCLC = test system: EKVX NSCLC
NCI-H23 lung = test system: NCI-H23 lung
RXF 393 renal = test system: RXF 393 renal
SF-539 CNS = test system: SF-539 CNS
NCI-H460 lung = test system: NCI-H460 lung

Measured: TGI

C/C=C/C1(C)/C(=N\O)C(C)(CCC)C(=O)N1O (stereo unspecified)
> 100 µM: all assays above
